Source: the supplement of paper PMC6045584

Columns and labels:
Assay in all cases: area under dose-response curve of surviving fraction (unscaled, Aref=0) (surviving fraction x log10(nM)); higher = more resistant
Conditions in all cases: exposure time: 5 days; dose range 0.5-1000 nM
[1] = compound: CCn1c(C(=O)N(C2CC2)C2CC2)cc2c3c(ncn3C)c(Nc3cc(C)n(C)n3)nc21
Procedure, shortened: (§1)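 Surviving fractions were fitted by 3-parameter logistic regression in the drc R package to give dose-response survival curves. They came from tumour cell lines treated for five days with eight inhibitor concentrations from 0.5 to 1000 nM and read by CellTiter-Glo luminescence against DMSO-only wells. The area under the curve is the unscaled activity area. It was calculated over log10 dose with Aref = 0.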

[2] = compound: CN1CCN(c2nc(C3=C(c4c[nH]c5ccccc45)C(=O)NC3=O)c3ccccc3n2)CC1 [SOTRASTAURIN/AEB071]
Procedure, shortened: as §1

[3] = compound: CNC(=O)c1cc(Oc2ccc(NC(=O)Nc3ccc(Cl)c(C(F)(F)F)c3)cc2)ccn1 [SORAFENIB]
Procedure, shortened: as §1

[4] = compound: COc1cc2c(Oc3ccc(NC(=O)C4(C(=O)Nc5ccc(F)cc5)CC4)cc3F)ccnc2cc1OCCCN1CCOCC1 [FORETINIB]
Procedure, shortened: as §1

[5] = compound: C[C@@H](Oc1cc(-c2cnn(C3CCNCC3)c2)cnc1N)c1c(Cl)ccc(F)c1Cl
Procedure, shortened: as §1

[6] = compound: C[C@]12CC[C@H](O)CC1=CC[C@@H]1[C@@H]2CC[C@]2(C)C(c3cccnc3)=CC[C@@H]12 [ABIRATERONE]
Procedure, shortened: as §1

[7] = compound: Cn1nnc2c(C(N)=O)ncn2c1=O [TEMOZOLOMIDE]
Procedure, shortened: as §1

[8] = compound: NS(=O)(=O)OC[C@@H]1C[C@@H](n2ccc3c(N[C@H]4CCc5ccccc54)ncnc32)C[C@@H]1O [MLN-4924]
Procedure, shortened: as §1

[9] = compound: COc1cc2ncnc(Nc3ccc(F)c(Cl)c3)c2cc1NC(=O)/C=C/CN1CCCCC1
Procedure, shortened: as §1

[10] = compound: Cc1nc(Nc2ncc(C(=O)Nc3c(C)cccc3Cl)s2)cc(N2CCN(CCO)CC2)n1 [DASATINIB]
Procedure, shortened: as §1

Test System	area under dose-response curve [1]	area under dose-response curve [2]	area under dose-response curve [3]	area under dose-response curve [4]	area under dose-response curve [5]	area under dose-response curve [6]	area under dose-response curve [7]	area under dose-response curve [8]	area under dose-response curve [9]	area under dose-response curve [10]
22RV1 PROSTATE	3.4	3.61	3.42	3.05	3	3.62	3.54	2.3		
93VU HEADNECK	3.21	3.06	3.6	3.15	3.15	3.9	3.5	2.42	1.8	1.68
143B BONE	3.44		3.46		3.2	3.51			3.27	
A549 LUNG	3.2		3.44	3.13	3.25	3.53	3.43	3.14	3.32	2.72
ASKA SYNOVIAL	3.49	3.57	3.67	2.97	1.91	3.92	3.76	2.57		3.09
BT20 BREAST	3.56	3.14		2.97	2.71	3.73	3.53		3.27	2.46
BT549 BREAST	3.29	3.27	3.65	3.09	3.16		3.71	2.41	3.07	1.74
C33A CERVIX	3.14	3.68	3.69	3.09	3.07		3.18	2.13	2.14	1.29
CADOES1 SOFT TISSUE	3.08	3.21	2.92	2.56	2.94		3.11	2.57	3	3.34
CAL51 BREAST	3.3	3.16	3.36	2.75	2.77	3.32	3.41	2.56	3.29	1.95
CAL72 BONE	3.63	3.55	3.59	3.09	3.32	3.67	3.47	2.83	3.26	1.77
CAL120 BREAST	3.06	3.28	3.19	3.06	2.89	3.35	3.22	2.22	3.14	1.98
CASKI CERVIX	3.21	3.1		2.87	2.58		3.19	2.18	1.19	1.2
CHLA90 AUTONOMIC GANGLIA	3.14	3.28	3.78	3	2.61	3.47	3.2		2.74	2.41
CME SYNOVIAL	4.04	4.01	4.2		3.05	4.4	4.38	2.38	4.38	2.06
COLO320DM LARGE INTESTINE	3.77	3.45	3.67	3.16	3.01	3.36	3.45	3.14	3.2	3.52
DU4475 BREAST	2.83			2.98	2.23	3.18	3.12	1.46		2.37
H23 LUNG	3.2	3.58	3.89	3.19	3.24	3.65	3.33	2.48	1.51	2.14
HCC78 LUNG	2.67	3.62	3.05	1.78	2.08	3.32	2.97	1.64	2.51	1.88
HCC202 BREAST	4.17				4.02	3.88			1.81	
HCC1395 BREAST	3.71	3.61	3.88		3.01	3.7	3.46	3.56	3.19	2.59
HCC1806 BREAST	3.46	3.26	3.16		2.87	3.71	3.62	1.35	2.42	1.53
HCC1954 BREAST	2.83	2.92	3.17		1.37		3.75	2.34	1.98	0.867
HCT15 LARGE INTESTINE	3.26	3.44	3.39	2.87	3.17	3.64	3.41	2.78		2.15
HELA CERVIX	3.32	3.56	3.38	3.06	3.13	3.73	3.6	3.35	3.73	3.16
HOS BONE	3.32	3.38	3.42	3.06	3.05	3.5	3.42	2.11	3.27	2.29
HOSMNG BONE	3.39	3.24		2.05	2.33	3.41	3	3.01	3.18	2.21
HSSYII SYNOVIAL	3.02	2.99	3.17	2.59	2.49	3.22	3.23	1.85	3	2.17
HU09 BONE	3.49		2.68	2.28	2.79	3.7	3.28	2.59	3.08	1.76
HUO3N1 BONE		3.24	3.13	2.9	3.14	3.47	3.36	3.13	3.17	1.45
